Test system: Beet Armyworm (Spodoptera exigua, LAPHEG) second instar larva
Test: Bioassay on beet armyworm (BAW), 128-well diet tray assay
Assay type: in vivo
Conditions: 50 μg/cm^2 on artificial diet, 25° C., five days
Method: Example A: Bioassays on Beet Armyworm (Spodoptera exigua, LAPHEG) (“BAW”) and Cabbage Looper (Trichoplusia ni, TRIPNI) (“CL”)
Bioassays on BAW were conducted using a 128-well diet tray assay. One second instar BAW larva was placed in each well (8 wells total) of the diet tray that had been previously filled with 1 mL of artificial diet to which 50 μg/cm^2 of the test molecule (dissolved in 50 μL of 90:10 acetone-water mixture) had been applied (to each of eight wells) and then allowed to dry. Trays were covered with a clear self-adhesive cover, vented to allow gas exchange, and held at 25° C., 14:10 light-dark for five days. Percent mortality was recorded for the larvae in each well; activity in the eight wells was then averaged.

| Compound | activity against BAW (percent mortality, averaged over eight wells) |
| --- | --- |
| Cc1ccccc1C(=O)Nc1cc(NC(=O)[C@H]2[C@H](c3cc(Cl)cc(Cl)c3)C2(Cl)Cl)ccc1Cl (racemic) [F73, trans-rac-N-(2-Chloro-5-(2,2-dichloro-3-(3,5-dichlorophenyl)cyclopropane-1-carboxamido)phenyl)-2-methylbenzamide] | exhibited activity |
| Cc1cc(C)cc(C(=O)Nc2cc(NC(=O)[C@H]3[C@H](c4cc(Cl)cc(Cl)c4)C3(Cl)Cl)ccc2Cl)c1 (racemic) [F76, trans-rac-N-(2-Chloro-5-(2,2-dichloro-3-(3,5-dichlorophenyl)cyclopropane-1-carboxamido)phenyl)-3,5-dimethylbenzamide] | exhibited activity |
| O=C(Nc1cc(NC(=O)[C@H]2[C@H](c3cc(Cl)cc(Cl)c3)C2(Cl)Cl)ccc1Cl)c1cccc(C(F)(F)F)c1 (racemic) [F81, trans-rac-N-(2-Chloro-5-(2,2-dichloro-3-(3,5-dichlorophenyl)cyclopropane-1-carboxamido)phenyl)-3-(trifluoromethyl)benzamide] | exhibited activity |
| O=C(Nc1cc(NC(=O)[C@H]2[C@H](c3cc(Cl)cc(Cl)c3)C2(Cl)Cl)ccc1Cl)c1ccccc1 (racemic) [F87, trans-rac-N-(2-Chloro-5-(2,2-dichloro-3-(3,5-dichlorophenyl)cyclopropane-1-carboxamido)phenyl)benzamide] | exhibited activity |
| O=C(Nc1cc(NC(=O)[C@H]2[C@H](c3cc(Cl)cc(Cl)c3)C2(Cl)Cl)ccc1Cl)c1cccc([N+](=O)[O-])c1 (racemic) [F88, trans-rac-N-(2-chloro-5-(2,2-dichloro-3-(3,5-dichlorophenyl)cyclopropane-1-carboxamido)phenyl)-3-nitrobenzamide] | exhibited activity |
| O=C(Nc1cc(NC(=O)[C@H]2[C@H](c3cc(Cl)cc(Cl)c3)C2(Cl)Cl)ccc1Cl)c1ccc([N+](=O)[O-])cc1 (racemic) [F89, trans-rac-N-(2-Chloro-5-(2,2-dichloro-3-(3,5-dichlorophenyl)cyclopropane-1-carboxamido)phenyl)-4-nitrobenzamide] | exhibited activity |
| Cc1cc([N+](=O)[O-])ccc1C(=O)Nc1cc(NC(=O)[C@H]2[C@H](c3cc(Cl)cc(Cl)c3)C2(Cl)Cl)ccc1Cl (racemic) [F90, trans-rac-N-(2-Chloro-5-(2,2-dichloro-3-(3,5-dichlorophenyl)cyclopropane-1-carboxamido)phenyl)-2-methyl-4-nitrobenzamide] | exhibited activity |
| C#Cc1ccc(C(=O)Nc2cc(NC(=O)[C@H]3[C@H](c4cc(Cl)cc(Cl)c4)C3(Cl)Cl)ccc2Cl)cc1 (racemic) [F91, trans-rac-N-(2-Chloro-5-(2,2-dichloro-3-(3,5-dichlorophenyl)cyclopropane-1-carboxamido)phenyl)-4-ethynylbenzamide] | exhibited activity |
| CC(CC(=O)N(C)c1cc(NC(=O)C2C(c3cc(Cl)cc(Cl)c3)C2(Cl)Cl)ccc1Cl)C(F)(F)F (racemic) [F92, trans-rac-2,2-dichloro-N-(4-chloro-3-(4,4,4-trifluoro-N,3-dimethylbutanamido)phenyl)-3-(3,5-dichlorophenyl)cyclopropane-1-carboxamide] | exhibited activity |
| Cc1cc(C#N)ccc1C(=O)N(C)c1cc(NC(=O)[C@H]2[C@H](c3cc(Cl)cc(Cl)c3)C2(Cl)Cl)ccc1Cl (racemic) [F93, trans-rac-N-(2-Chloro-5-(2,2-dichloro-3-(3,5-dichlorophenyl)cyclopropane-1-carboxamido)phenyl)-4-cyano-N,2-dimethylbenzamide] | exhibited activity |
| CN(C(=O)c1cc(F)cc(F)c1)c1cc(NC(=O)[C@H]2[C@H](c3cc(Cl)cc(Cl)c3)C2(Cl)Cl)ccc1Cl (racemic) [F94, trans-rac-N-(2-Chloro-5-(2,2-dichloro-3-(3,5-dichlorophenyl)cyclopropane-1-carboxamido)phenyl)-3,5-difluoro-N-methylbenzamide] | exhibited activity |
| O=C(COCC(F)(F)F)Nc1ccc(C(=O)Nc2cc(NC(=O)[C@H]3[C@H](c4ccc(F)c(C(F)(F)F)c4)C3(Cl)Cl)ccc2Cl)c(F)c1 (racemic) [F119, trans-rac-N-(2-Chloro-5-(2,2-dichloro-3-(4-fluoro-3-(trifluoromethyl)phenyl)cyclopropane-1-carboxamido)phenyl)-2-fluoro-4-(2-(2,2,2-trifluoroethoxy)acetamido)benzamide] | exhibited activity |
| O=C(CCC(F)(F)F)Nc1ccc(C(=O)Nc2cc(NC(=O)[C@H]3[C@H](c4ccc(F)c(C(F)(F)F)c4)C3(Cl)Cl)ccc2Cl)c(F)c1 (racemic) [F120, trans-rac-N-(2-Chloro-5-(2,2-dichloro-3-(4-fluoro-3-(trifluoromethyl)phenyl)cyclopropane-1-carboxamido)phenyl)-2-fluoro-4-(4,4,4-trifluorobutanamido)benzamide] | exhibited activity |
| O=C(CSC(F)(F)F)Nc1ccc(C(=O)Nc2cc(NC(=O)[C@H]3[C@H](c4ccc(F)c(C(F)(F)F)c4)C3(Cl)Cl)ccc2Cl)c(F)c1 (racemic) [F121, trans-rac-N-(2-Chloro-5-(2,2-dichloro-3-(4-fluoro-3-(trifluoromethyl)phenyl)cyclopropane-1-carboxamido)phenyl)-2-fluoro-4-(2-((trifluoromethyl)thio)acetamido)benzamide] | exhibited activity |
| CCOC(C)C(=O)Nc1c(F)ccc(NC(=O)[C@H]2[C@H](c3cc(Cl)c(Cl)c(Cl)c3)C2(Cl)Cl)c1F (stereo partly drawn) [F12, (1R,3R)-2,2-Dichloro-N-(3-(2-ethoxypropanamido)-2,4-difluorophenyl)-3-(3,4,5-trichlorophenyl)cyclopropane-1-carboxamide] | exhibited activity |
| O=C(Nc1ccc(F)c(NC(=O)C(F)(F)C(F)(F)C(F)(F)F)c1F)[C@H]1[C@H](c2cc(Cl)c(Cl)c(Cl)c2)C1(Cl)Cl [F13, (1R,3R)-2,2-Dichloro-N-(2,4-difluoro-3-(2,2,3,3,4,4,4-heptafluorobutanamido)phenyl)-3-(3,4,5-trichlorophenyl)cyclopropane-1-carboxamide] | exhibited activity |
| Cc1cc(C#N)ccc1C(=O)Nc1cc(NC(=O)[C@H]2[C@H](c3ccc(F)c(C(F)(F)F)c3)C2(Cl)Cl)ccc1Cl [F97, N-(2-Chloro-5-((1R,3R)-2,2-dichloro-3-(4-fluoro-3-(trifluoromethyl)phenyl)cyclopropane-1-carboxamido)phenyl)-4-cyano-2-methylbenzamide] | exhibited activity |
| Cc1cc(C#N)ccc1C(=O)Nc1cc(NC(=O)[C@H]2[C@H](c3ccc(F)c(Br)c3)C2(Cl)Cl)ccc1Cl [F98, N-(5-((1R,3R)-3-(3-Bromo-4-fluorophenyl)-2,2-dichlorocyclopropane-1-carboxamido)-2-chlorophenyl)-4-cyano-2-methylbenzamide] | exhibited activity |
| Cc1cc(C#N)ccc1C(=O)Nc1cc(NC(=O)[C@H]2[C@H](c3ccc(Cl)c(Cl)c3)C2(Cl)Cl)ccc1Cl [F99, N-(2-Chloro-5-((1R,3R)-2,2-dichloro-3-(3,4-dichlorophenyl)cyclopropane-1-carboxamido)phenyl)-4-cyano-2-methylbenzamide] | exhibited activity |
| CC(CC(=O)Nc1cc(NC(=O)[C@H]2[C@H](c3ccc(F)c(C(F)(F)F)c3)C2(Cl)Cl)ccc1Cl)C(F)(F)F (stereo partly drawn) [F102, (1R,3R)-2,2-Dichloro-N-(4-chloro-3-(4,4,4-trifluoro-3-methylbutanamido)phenyl)-3-(4-fluoro-3-(trifluoromethyl)phenyl)cyclopropane-1-carboxamide] | exhibited activity |
| Nc1c(F)ccc(C(=O)Nc2cc(NC(=O)[C@H]3[C@H](c4ccc(F)c(C(F)(F)F)c4)C3(Cl)Cl)ccc2Cl)c1F [F103, 3-amino-N-(2-chloro-5-((1R,3R)-2,2-dichloro-3-(4-fluoro-3-(trifluoromethyl)phenyl)cyclopropane-1-carboxamido)phenyl)-2,4-difluorobenzamide] | exhibited activity |
| O=C(Nc1cc(NC(=O)[C@H]2[C@H](c3ccc(F)c(C(F)(F)F)c3)C2(Cl)Cl)ccc1Cl)c1ccc(F)c(NC(=O)C(F)F)c1F [F104, N-(2-chloro-5-((1R,3R)-2,2-dichloro-3-(4-fluoro-3-(trifluoromethyl)phenyl)cyclopropane-1-carboxamido)phenyl)-3-(2,2-difluoroacetamido)-2,4-difluorobenzamide] | exhibited activity |
| COCC(=O)Nc1c(F)ccc(C(=O)Nc2cc(NC(=O)[C@H]3[C@H](c4ccc(F)c(C(F)(F)F)c4)C3(Cl)Cl)ccc2Cl)c1F [F105, N-(2-chloro-5-((1R,3R)-2,2-dichloro-3-(4-fluoro-3-(trifluoromethyl)phenyl)cyclopropane-1-carboxamido)phenyl)-2,4-difluoro-3-(2-methoxyacetamido)benzamide] | exhibited activity |
| O=C(Nc1cc(NC(=O)[C@@H]2[C@@H](c3ccc(F)c(C(F)(F)F)c3)C2(Cl)Cl)ccc1Cl)c1cnc(F)c(F)c1 [F110, N-(2-Chloro-5-((1S,3S)-2,2-dichloro-3-(4-fluoro-3-(trifluoromethyl)phenyl)cyclopropane-1-carboxamido)phenyl)-5,6-difluoronicotinamide] | exhibited activity |

— patent US20240343681A1, “MOLECULES HAVING PESTICIDAL UTILITY AND INTERMEDIATES AND PROCESSES RELATED THERETO” (priority 2021, published 2024)
